From ChEMBL document CHEMBL4390680, “In silico study of M18 aspartyl amino peptidase (M18AAP) of Plasmodium vivax as an antimalarial drug target” (Bioorg Med Chem, 2019) come the findings set out here.

A short description of this assay: Inhibition of Plasmodium vivax aminopeptidase-M18.
Regarding `CN(CCc1ccc(O)c(O)c1)c1ccnc2ccccc12`, the pIC50 (usually −log10 of the IC50, conventionally taken in molar units) came to 5.319.
The result for `COc1ccc(CCNc2ccnc3cc(Cl)ccc23)cc1OC` reads 6.18.
The result for `COc1cc(Br)c(CCNc2c3c(nc4ccccc24)CCCC3)cc1OC` reads 5.522; that for `COc1ccc(CCNc2cncc3ccccc23)cc1OC`, 5.347; that for `COc1cccc(CCNc2c3ccccc3nc3ccccc23)c1`, 6.221.
The figure for `Oc1cccc(CCNc2ccnc3ccccc23)c1O` is 5.569; for `Oc1ccc(C2CCN(c3ccnc4ccccc34)C2)cc1O` (stereo unspecified) it is 6.031.
With `COc1ccc(C2CCN(c3ccnc4ccccc34)C2)cc1OC` (stereo unspecified), the pIC50 is given as 5.699.
`NCCNc1c2ccccc2nc2ccccc12`: the pIC50 came to 6.301.
The figure for `Oc1ccc(C2CCN(c3ccnc4ccccc34)CC2)cc1O` is 5.887; for `Oc1ccc(CCN2CCc3ccccc3C2)cc1O` it is 5.102; for `COc1ccc(CCNc2c3ccccc3nc3ccccc23)cc1OC` it is 5.61.
For `Cc1c(OCc2ccccc2)c(=O)ccn1CCNc1c2ccccc2nc2ccccc12`, the pIC50 worked out at 5.398.
The figure for `Cc1cccc2c(NCCc3ccc(O)c(O)c3)ccnc12` is 5.328; for `COc1ccc(CCNC2CCN(Cc3ccccc3)CC2)cc1OC` it is 5.161.
The figure for `Oc1ccc(CCNc2c3ccccc3nc3ccccc23)cc1` is 6.155; for `CCOc1ccc2nccc(NCCc3ccc(OC)c(OC)c3)c2c1` it is 5.854.
On to `COc1ccc(CCCNc2c3ccccc3nc3ccccc23)cc1OC`, for which the pIC50 turned out to be 5.658.
The result for `Oc1ccc(CCNc2ccnc3ccccc23)cc1O` reads 5.409.
The result for `Oc1ccc(C2CCCN(c3ccnc4ccccc34)C2)cc1O` (stereo unspecified) reads 5.377.
As to `COc1cc(Br)c(CCNc2ccnc3ccccc23)cc1OC`, the pIC50 is 6.347.
The result for `COc1ccc(CCN(C)c2c3ccccc3nc3ccccc23)cc1OC` reads 5.347; that for `Oc1ccc(CCNC2CCN(Cc3ccccc3)CC2)cc1O`, 5.187.
The figure for `COc1ccc(CCNc2c3ccccc3nc3ccccc23)cc1` is 5.959; for `COc1ccc(CNc2c3ccccc3nc3ccccc23)cc1OC` it is 5.979.
Take `Oc1ccc(CCNc2c3c(nc4ccccc24)CCCC3)cc1O`: the pIC50 was 5.443.
The figure for `COc1cc(Br)c(CCNc2c3ccccc3nc3ccccc23)cc1OC` is 6.522.
The result for `COc1ccc(CCN(C)c2ccnc3cc(Cl)ccc23)cc1OC` reads 5.24; that for `Oc1ccc(CCNc2ccnc3cc(Cl)ccc23)cc1O`, 6.208; that for `Oc1ccc(CCCNc2c3ccccc3nc3ccccc23)cc1O`, 5.432.
Regarding `O=c1ccn(CCNc2c3ccccc3nc3ccccc23)cc1OCc1ccccc1`, the pIC50 is on record as 5.328.
